Results: patent US10981894B2, “Melanocortin subtype-2 receptor (MC2R) antagonists and uses thereof” (Crinetics Pharmaceuticals, Inc., priority 2018, dated 2021)

Molecular target: hMC2 receptor (Homo sapiens, UniProt Q01718)
Assay: hMC2 membrane binding assay ([125I]ACTH (1-39) Tyr23, SPA)
Set-up: scale not given here
Settings: crude hMC2R membranes from CRE-bla-CHO-K1 cells expressing hMC2 receptor and hMRAP; [125I]ACTH (1-39) Tyr23 0.2 nM; 1.5 hours at room temperature; read-out: MC2R binding potency
Method in brief: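 Ki comes from non-linear regression of SPA scintillation counts. Displacement of 0.2 nM [125I]ACTH(1-39) Tyr23 by compound dose series (usually 0–10,000 nM final) ran 1.5 h at room temperature. Membranes came from CHO-K1 CRE-bla cells stably expressing hMC2R plus hMRAP, bead-coupled in pH 7.4 buffer with 0.2% BSA.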

Sequence of hMC2 receptor (Q01718 whole entry): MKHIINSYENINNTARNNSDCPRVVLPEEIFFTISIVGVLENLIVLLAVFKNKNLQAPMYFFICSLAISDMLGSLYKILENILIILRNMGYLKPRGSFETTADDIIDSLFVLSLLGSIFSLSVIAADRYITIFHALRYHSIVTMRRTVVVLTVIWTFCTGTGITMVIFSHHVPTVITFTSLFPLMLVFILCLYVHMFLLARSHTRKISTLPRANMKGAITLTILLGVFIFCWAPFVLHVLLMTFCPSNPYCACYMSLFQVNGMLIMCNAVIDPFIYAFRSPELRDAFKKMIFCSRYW
Sequence of hMC2 receptor (Q8TCY5 whole entry partner): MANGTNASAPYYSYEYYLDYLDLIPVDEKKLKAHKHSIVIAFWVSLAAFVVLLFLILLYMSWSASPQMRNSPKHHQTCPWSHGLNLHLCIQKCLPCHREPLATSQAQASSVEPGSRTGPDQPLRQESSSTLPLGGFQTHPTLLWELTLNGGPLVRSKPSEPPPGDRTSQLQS

Compound | Ki
CCOc1ccccc1-c1ccc(N2CCN(C(=O)c3ccc(OC)nc3C(F)(F)F)C[C@H]2CC)c(C(=O)N[C@@H]2CCN(C)C2)n1 [Compound 1-253, 6-(2-ethoxyphenyl)-3-[(2R)-2-ethyl-4-[6-methoxy-2-(trifluoromethyl)pyridine-3-carbonyl]piperazin-1-yl]-N-[(3R)-1-methylpyrrolidin-3-yl]pyridine-2-carboxamide] | < 0.01 µM
CCOc1ncccc1-c1ccc(N2CCN(C(=O)C3(C(F)(F)F)CCCC3)C[C@H]2CC)c(C(=O)N[C@@H]2CCN(C)C2)n1 [Compound 1-255, 2′-ethoxy-5-[(2R)-2-ethyl-4-[1-(trifluoromethyl)cyclopentanecarbonyl]piperazin-1-yl]-N-[(3R)-1-methylpyrrolidin-3-yl]-[2,3′-bipyridine]-6-carboxamide] | < 0.01 µM
CCOc1ccc(C(=O)N2CCN(c3ccc(-c4cccnc4OCC)nc3C(=O)NC[C@@H]3CCN3)[C@H](CC)C2)c(C(F)(F)F)n1 [Compound 1-256, N-{[(2S)-azetidin-2-yl]methyl}-2′-ethoxy-5-[(2R)-4-[6-ethoxy-2-(trifluoromethyl)pyridine-3-carbonyl]-2-ethylpiperazin-1-yl]-[2,3′-bipyridine]-6-carboxamide] | < 0.01 µM
CCOc1ccc(C(=O)N2CCN(c3ccc(-c4cccnc4OCC)nc3C(=O)NC[C@@H]3CCN3C)[C@H](CC)C2)c(C(F)(F)F)n1 [Compound 1-257, 2′-ethoxy-5-[(2R)-4-[6-ethoxy-2-(trifluoromethyl)pyridine-3-carbonyl]-2-ethylpiperazin-1-yl]-N-{[(2S)-1-methylazetidin-2-yl]methyl}-[2,3′-bipyridine]-6-carboxamide] | < 0.01 µM
CCOc1ncccc1-c1ccc(N2CCN(C(=O)c3ccc(Cl)cc3Cl)C[C@H]2CC)c(C(=O)N[C@@H]2CCN(C)C2)n1 [Compound 1-259, 5-[(2R)-4-(2,4-dichlorobenzoyl)-2-ethylpiperazin-1-yl]-2′-ethoxy-N-[(3R)-1-methylpyrrolidin-3-yl]-[2,3′-bipyridine]-6-carboxamide] | < 0.01 µM
CCOc1ncccc1-c1ccc(N2CCN(C(=O)c3ccc(Cl)cc3C#N)C[C@H]2CC)c(C(=O)N[C@@H]2CCN(C)C2)n1 [Compound 1-260, 5-[(2R)-4-(4-chloro-2-cyanobenzoyl)-2-ethylpiperazin-1-yl]-2′-ethoxy-N-[(3R)-1-methylpyrrolidin-3-yl]-[2,3′-bipyridine]-6-carboxamide] | < 0.01 µM
CCOc1ncccc1-c1ccc(N2CCN(C(=O)c3ccc(F)cc3Cl)C[C@H]2CC)c(C(=O)N[C@@H]2CCN(C)C2)n1 [Compound 1-261, 5-[(2R)-4-[2-chloro-4-fluorobenzoyl]-2-ethylpiperazin-1-yl]-2′-ethoxy-N-[(3R)-1-methylpyrrolidin-3-yl]-[2,3′-bipyridine]-6-carboxamide] | < 0.01 µM
CCOc1ncccc1-c1ccc(N2CCN(C(=O)C3(C(F)(F)F)CCCC3)C[C@H]2CC)c(C(=O)N[C@@H]2CCNC2)n1 [Compound 1-263, 2′-ethoxy-5-[(2R)-2-ethyl-4-[1-(trifluoromethyl)cyclopentanecarbonyl]piperazin-1-yl]-N-[(3R)-pyrrolidin-3-yl]-[2,3′-bipyridine]-6-carboxamide] | < 0.01 µM
CCOc1ncccc1-c1ccc(N2CCN(C(=O)C3(CC)CCCC3)C[C@H]2CC)c(C(=O)NCCNC)n1 [Compound 1-264, 2′-ethoxy-5-[(2R)-2-ethyl-4-(1-ethylcyclopentanecarbonyl)piperazin-1-yl]-N-[2-(methylamino)ethyl]-[2,3′-bipyridine]-6-carboxamide] | < 0.01 µM
CCOc1ncccc1-c1ccc(N2CCN(C(=O)c3ccc(Cl)cc3C(F)F)C[C@H]2CC)c(C(=O)N[C@@H]2CCNC2)n1 [Compound 1-265, 5-[(2R)-4-[4-chloro-2-(difluoromethyl)benzoyl]-2-ethylpiperazin-1-yl]-2′-ethoxy-N-[(3R)-pyrrolidin-3-yl]-[2,3′-bipyridine]-6-carboxamide] | < 0.01 µM
CCOc1ncccc1-c1ccc(N2CCN(C(=O)c3ccc(Cl)cc3Cl)C[C@H]2CC)c(C(=O)N[C@@H]2CCNC2)n1 [Compound 1-267, 5-[(2R)-4-(2,4-dichlorobenzoyl)-2-ethylpiperazin-1-yl]-2′-ethoxy-N-[(3R)-pyrrolidin-3-yl]-[2,3′-bipyridine]-6-carboxamide] | < 0.01 µM
CCOc1ncccc1-c1ccc(N2CCN(C(=O)c3ccc(OC)nc3C(F)(F)F)C[C@H]2CC)c(C(=O)N[C@@H]2CCN(C)C2)c1F [Compound 1-270, 3-(2-ethoxypyridin-3-yl)-6-[(2R)-2-ethyl-4-[6-methoxy-2-(trifluoromethyl)pyridine-3-carbonyl]piperazin-1-yl]-2-fluoro-N-[(3R)-1-methylpyrrolidin-3-yl]benzamide] | < 0.01 µM
CCOc1ncccc1-c1ccc(N2CCN(C(=O)C34CCC(C(F)(F)F)(CC3)CC4)C[C@H]2CC)c(C(=O)N[C@@H]2CCNC2)n1 [Compound 1-274, 2′-ethoxy-5-[(2R)-2-ethyl-4-[4-(trifluoromethyl)bicyclo[2.2.2]octane-1-carbonyl]piperazin-1-yl]-N-[(3R)-pyrrolidin-3-yl]-[2,3′-bipyridine]-6-carboxamide] | < 0.01 µM
CCOc1ncccc1-c1ccc(N2CCN(C(=O)c3ccc(Cl)cc3C(F)(F)F)C[C@H]2CC)c(C(=O)N[C@H]2CNC[C@H]2F)n1 [Compound 1-275, 5-[(2R)-4-[4-chloro-2-(trifluoromethyl)benzoyl]-2-ethylpiperazin-1-yl]-2′-ethoxy-N-[(3S,4R)-4-fluoropyrrolidin-3-yl]-[2,3′-bipyridine]-6-carboxamide] | < 0.01 µM
CCOc1ncccc1-c1ccc(N2CCN(C(=O)c3ccc(Cl)cc3C(F)(F)F)C[C@H]2CC)c(C(=O)N[C@@H]2CNC[C@H]2F)n1 [Compound 1-276, 5-[(2R)-4-[4-chloro-2-(trifluoromethyl)benzoyl]-2-ethylpiperazin-1-yl]-2′-ethoxy-N-[(3R,4R)-4-fluoropyrrolidin-3-yl]-[2,3′-bipyridine]-6-carboxamide] | < 0.01 µM
CCOc1ncccc1-c1ccc(N2CCN(C(=O)c3ccc(Cl)cc3C#N)C[C@H]2CC)c(C(=O)N[C@@H]2CCNC2)n1 [Compound 1-277, 5-[(2R)-4-(4-chloro-2-cyanobenzoyl)-2-ethylpiperazin-1-yl]-2′-ethoxy-N-[(3R)-pyrrolidin-3-yl]-[2,3′-bipyridine]-6-carboxamide] | < 0.01 µM

More lines, now with the values ahead:

Ki | Compound
< 0.01 µM | CC[C@@H]1CN(C(=O)c2ccc(OC)nc2C(F)(F)F)CCN1c1ccc(-c2cccnc2OC)nc1C(=O)NC1CN(C)C1 [Compound 1-246, 5-[(2R)-2-ethyl-4-[6-methoxy-2-(trifluoromethyl)pyridine-3-carbonyl]piperazin-1-yl]-2′-methoxy-N-(1-methylazetidin-3-yl)-[2,3′-bipyridine]-6-carboxamide]
< 0.01 µM | CCOc1ccc(C(=O)N2CCN(c3ccc(-c4cccnc4OC)nc3C(=O)NC3CN(C)C3)[C@H](CC)C2)c(C(F)(F)F)n1 [Compound 1-247, 5-[(2R)-4-[6-ethoxy-2-(trifluoromethyl)pyridine-3-carbonyl]-2-ethylpiperazin-1-yl]-2′-methoxy-N-(1-methylazetidin-3-yl)-[2,3′-bipyridine]-6-carboxamide]
< 0.01 µM | CCOc1ccc(C(=O)N2CCN(c3ccc(-c4cccnc4OCC)nc3C(=O)NCC3CN(C)C3)[C@H](CC)C2)c(C(F)(F)F)n1 [Compound 1-249, 2′-ethoxy-5-[(2R)-4-[6-ethoxy-2-(trifluoromethyl)pyridine-3-carbonyl]-2-ethylpiperazin-1-yl]-N-[(1-methylazetidin-3-yl)methyl]-[2,3′-bipyridine]-6-carboxamide]
< 0.01 µM | CCOc1ccccc1-c1ccc(N2CCN(C(=O)c3ccc(OC)nc3C(F)(F)F)C[C@H]2CC)c(C(=O)N[C@@H]2CCNC2)n1 [Compound 1-254, 6-(2-ethoxyphenyl)-3-[(2R)-2-ethyl-4-[6-methoxy-2-(trifluoromethyl)pyridine-3-carbonyl]piperazin-1-yl]-N-[(3R)-pyrrolidin-3-yl]pyridine-2-carboxamide]
< 0.01 µM | CCOc1ncccc1-c1ccc(N2CCN(C(=O)c3ccc(F)cc3C(F)(F)F)C[C@H]2CC)c(C(=O)N[C@@H]2CCN(C)C2)n1 [Compound 1-258, 2′-ethoxy-5-[(2R)-2-ethyl-4-[4-fluoro-2-(trifluoromethyl)benzoyl]piperazin-1-yl]-N-[(3R)-1-methylpyrrolidin-3-yl]-[2,3′-bipyridine]-6-carboxamide]
< 0.01 µM | CCOc1ncccc1-c1ccc(N2CCN(C(=O)c3ccc(Cl)cc3C(F)F)C[C@H]2CC)c(C(=O)N[C@@H]2CCN(C)C2)n1 [Compound 1-262, 5-[(2R)-4-[4-chloro-2-(difluoromethyl)benzoyl]-2-ethylpiperazin-1-yl]-2′-ethoxy-N-[(3R)-1-methylpyrrolidin-3-yl]-[2,3′-bipyridine]-6-carboxamide]
< 0.01 µM | CCOc1ncccc1-c1ccc(N2CCN(C(=O)c3ccc(F)cc3C(F)(F)F)C[C@H]2CC)c(C(=O)N[C@@H]2CCNC2)n1 [Compound 1-266, 2′-ethoxy-5-[(2R)-2-ethyl-4-[4-fluoro-2-(trifluoromethyl)benzoyl]piperazin-1-yl]-N-[(3R)-pyrrolidin-3-yl]-[2,3′-bipyridine]-6-carboxamide]
< 0.01 µM | CCOc1ncccc1-c1ccc(N2CCN(C(=O)c3ccc(OC)nc3C(F)(F)F)C[C@H]2CC)c(C(=O)N[C@@H]2CCNC2)c1F [Compound 1-271, 3-(2-ethoxypyridin-3-yl)-6-[(2R)-2-ethyl-4-[6-methoxy-2-(trifluoromethyl)pyridine-3-carbonyl]piperazin-1-yl]-2-fluoro-N-[(3R)-pyrrolidin-3-yl]benzamide]
< 0.01 µM | CCOc1ncccc1-c1ccc(N2CCN(C(=O)C3(C(F)(F)F)CCCCC3)C[C@H]2CC)c(C(=O)N[C@@H]2CCNC2)n1 [Compound 1-273, 2′-ethoxy-5-[(2R)-2-ethyl-4-[1-(trifluoromethyl)cyclohexanecarbonyl]piperazin-1-yl]-N-[(3R)-pyrrolidin-3-yl]-[2,3′-bipyridine]-6-carboxamide]
